Source: US20120100989A1, “3-Aryl-4-(2-thienylmethylene)isoxazol-5(4H)-ones as Fungicides” (Bayer CropScience AG, priority 2010, published 2012)

Experiment: log P by HPLC on reversed-phase columns (C 18), EEC directive 79/831 Annex V.A8
Assay type: physicochemical
Details: pH 2.7
Method: The log P values were measured according to EEC directive 79/831 Annex V.A8 by HPLC (High Performance Liquid Chromatography) on reversed-phase columns (C 18), using the method below:
The determination was carried out in the acidic range at pH 2.7 using the mobile phases 0.1% aqueous formic acid and acetonitrile; linear gradient from 10% acetonitrile to 95% acetonitrile.

Structure (SMILES)	log P
CCOc1ccc(C2=NOC(=O)C2=Cc2ccc(C)s2)cc1 [I-81]	3.70
CCOc1ccc(C2=NOC(=O)C2=Cc2ccc(Br)s2)cc1 [I-83]	4.20
Cc1cccc(C2=NOC(=O)C2=Cc2ccc(C)s2)c1 [I-85]	3.67
Cc1cc(C)cc(C2=NOC(=O)C2=Cc2ccc(C)s2)c1 [I-87]	4.08
Cc1cc(C)cc(C2=NOC(=O)C2=Cc2sccc2C)c1 [I-88]	4.03
Cc1cc(C)cc(C2=NOC(=O)C2=Cc2cccs2)c1 [I-89]	3.78
Cc1ccc(C2=NOC(=O)C2=Cc2cccs2)c(C)c1 [I-90]	3.60
Cc1ccc(C2=NOC(=O)C2=Cc2cccs2)cc1C [I-92]	3.73
CC(C)(C)c1ccc(C2=NOC(=O)C2=Cc2ccc(Br)s2)cc1 [I-93]	5.13
Cc1ccc(C2=NOC(=O)C2=Cc2sccc2C)c(C)c1 [I-97]	3.85
Cc1ccc(C)c(C2=NOC(=O)C2=Cc2cccs2)c1 [I-98]	3.62
O=C1ON=C(c2cccc(Cl)c2Cl)C1=Cc1cccs1 [I-99]	3.62
O=C1ON=C(c2cccc(F)c2)C1=Cc1ccc([N+](=O)[O-])s1 [I-101]	3.41
O=C1ON=C(c2ccccc2Cl)C1=Cc1ccc([N+](=O)[O-])s1 [I-104]	3.50
O=C1ON=C(c2ccccc2F)C1=Cc1ccc(Cl)s1 [I-106]	3.67
CCOc1ccccc1C1=NOC(=O)C1=Cc1cc(-c2ccccc2)cs1 [I-112]	4.44
O=C1ON=C(c2ccccc2OCc2ccccc2)C1=Cc1ccc(Br)s1 [I-113]	4.48
O=C1ON=C(c2ccccc2OCc2ccccc2)C1=Cc1cc(-c2ccccc2)cs1 [I-114]	4.80
Cc1ccc(C=C2C(=O)ON=C2c2ccccc2OCc2ccccc2)s1 [I-115]	3.98
Cc1ccsc1C=C1C(=O)ON=C1c1ccccc1OCc1ccccc1 [I-116]	3.89
O=C1ON=C(c2ccccc2OCc2ccccc2)C1=Cc1cccs1 [I-117]	3.74
CCOc1ccccc1C1=NOC(=O)C1=Cc1ccc(Br)s1 [I-118]	4.03
O=C1ON=C(c2ccccc2OC(F)(F)F)C1=Cc1cccs1 [I-121]	3.43
Cc1cccc(C2=NOC(=O)C2=Cc2cccs2)c1C [I-123]	3.48
Cc1ccc(C)c(C2=NOC(=O)C2=Cc2sccc2C)c1 [I-124]	3.81
O=C1ON=C(c2cc(F)ccc2F)C1=Cc1cccs1 [I-126]	3.07

Results, then the molecule that gave them:

log P	Structure (SMILES)
3.61	CCOc1ccc(C2=NOC(=O)C2=Cc2sccc2C)cc1 [I-82]
4.14	Cc1cccc(C2=NOC(=O)C2=Cc2ccc(Br)s2)c1 [I-84]
3.60	Cc1cccc(C2=NOC(=O)C2=Cc2sccc2C)c1 [I-86]
3.82	Cc1ccsc1C=C1C(=O)ON=C1c1cccc(C(F)(F)F)c1 [I-91]
3.13	O=C1ON=C(c2cccc(F)c2)C1=Cc1cccs1 [I-100]
3.31	Cc1ccsc1C=C1C(=O)ON=C1c1cccc(F)c1 [I-102]
3.94	O=C1ON=C(c2ccccc2Cl)C1=Cc1ccc(Br)s1 [I-103]
3.76	O=C1ON=C(c2ccccc2)C1=Cc1ccc(Cl)s1 [I-105]
3.56	Cc1ccsc1C=C1C(=O)ON=C1c1ccccc1I [I-107]
3.36	O=C1ON=C(c2ccccc2I)C1=Cc1cccs1 [I-108]
3.69	O=C1ON=C(c2ccccc2)C1=Cc1sccc1Br [I-109]
4.27	O=C1ON=C(c2ccccc2)C1=Cc1cc(-c2ccccc2)cs1 [I-110]
4.46	O=C1ON=C(c2ccccc2)C1=Cc1cc(Br)c(Br)s1 [I-111]
3.25	CCOc1ccccc1C1=NOC(=O)C1=Cc1cccs1 [I-119]
2.69	O=C1ON=C(c2ccccc2[N+](=O)[O-])C1=Cc1cccs1 [I-120]
3.88	O=C1ON=C(c2cc(Br)ccc2Br)C1=Cc1cccs1 [I-122]
4.02	Cc1ccsc1C=C1C(=O)ON=C1c1cc(Br)ccc1Br [I-125]
